# Results from the supplement of paper PMC10307832.
# Experiments:
# Test in all cases: relative viability (nuclei count vs DMSO), 5 days (fraction); higher = more cells survive
# Everolimus + Crizotinib = compound: CO[C@H]1C[C@@H]2CC[C@@H](C)[C@@](O)(O2)C(=O)C(=O)N2CCCC[C@H]2C(=O)O[C@H]([C@H](C)C[C@@H]2CC[C@@H](OCCO)[C@H](OC)C2)CC(=O)[C@H](C)/C=C(\C)[C@@H](O)[C@@H](OC)C(=O)[C@H](C)C[C@H](C)/C=C/C=C/C=C/1C [Everolimus] + C[C@@H](Oc1cc(-c2cnn(C3CCNCC3)c2)cnc1N)c1c(Cl)ccc(F)c1Cl [Crizotinib] (partner 1 µM)
# Summary of the method: (§1)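 Nuclei were stained with Hoechst during a one-step fixation (final 0.05% Triton X-100, 1% formaldehyde, 1 ug/ml Hoechst) carried out 5 days after dosing, then counted on 4× images. The cells, lung cancer lines in 1536-well plates, had been dosed by pin tool the day after seeding with one drug alone or a fixed anchor-drug dose plus five library-drug doses (not always all listed) in √10 steps. Relative viability is the nuclei count in treated wells divided by that in vehicle wells, and each value is the median of duplicate plates.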
# Everolimus + Tozasertib = compound: CO[C@H]1C[C@@H]2CC[C@@H](C)[C@@](O)(O2)C(=O)C(=O)N2CCCC[C@H]2C(=O)O[C@H]([C@H](C)C[C@@H]2CC[C@@H](OCCO)[C@H](OC)C2)CC(=O)[C@H](C)/C=C(\C)[C@@H](O)[C@@H](OC)C(=O)[C@H](C)C[C@H](C)/C=C/C=C/C=C/1C [Everolimus] + Cc1cc(Nc2cc(N3CCN(C)CC3)nc(Sc3ccc(NC(=O)C4CC4)cc3)n2)n[nH]1 [Tozasertib] (partner 0.1 µM)
# Summary of the method: as §1
# Everolimus + Decitabine = compound: CO[C@H]1C[C@@H]2CC[C@@H](C)[C@@](O)(O2)C(=O)C(=O)N2CCCC[C@H]2C(=O)O[C@H]([C@H](C)C[C@@H]2CC[C@@H](OCCO)[C@H](OC)C2)CC(=O)[C@H](C)/C=C(\C)[C@@H](O)[C@@H](OC)C(=O)[C@H](C)C[C@H](C)/C=C/C=C/C=C/1C [Everolimus] + Nc1ncn([C@H]2C[C@H](O)[C@@H](CO)O2)c(=O)n1 [Decitabine] (partner 2 µM)
# Summary of the method: as §1
# Everolimus + Lapatinib = compound: CO[C@H]1C[C@@H]2CC[C@@H](C)[C@@](O)(O2)C(=O)C(=O)N2CCCC[C@H]2C(=O)O[C@H]([C@H](C)C[C@@H]2CC[C@@H](OCCO)[C@H](OC)C2)CC(=O)[C@H](C)/C=C(\C)[C@@H](O)[C@@H](OC)C(=O)[C@H](C)C[C@H](C)/C=C/C=C/C=C/1C [Everolimus] + CS(=O)(=O)CCNCc1ccc(-c2ccc3ncnc(Nc4ccc(OCc5cccc(F)c5)c(Cl)c4)c3c2)o1 [Lapatinib] (partner 2 µM)
# Summary of the method: as §1
Cell Line,relative viability (Everolimus + Crizotinib; first compound 0.01 µM),relative viability (Everolimus + Crizotinib; first compound 0.03162 µM),relative viability (Everolimus + Crizotinib; first compound 0.1 µM),relative viability (Everolimus + Crizotinib; first compound 0.3162 µM),relative viability (Everolimus + Crizotinib; first compound 1 µM),relative viability (Everolimus + Tozasertib; first compound 0.01 µM),relative viability (Everolimus + Tozasertib; first compound 0.03162 µM),relative viability (Everolimus + Tozasertib; first compound 0.1 µM),relative viability (Everolimus + Tozasertib; first compound 0.3162 µM),relative viability (Everolimus + Tozasertib; first compound 1 µM),relative viability (Everolimus + Decitabine; first compound 0.01 µM),relative viability (Everolimus + Decitabine; first compound 0.03162 µM),relative viability (Everolimus + Decitabine; first compound 0.1 µM),relative viability (Everolimus + Decitabine; first compound 0.3162 µM),relative viability (Everolimus + Decitabine; first compound 1 µM),relative viability (Everolimus + Lapatinib; first compound 0.01 µM),relative viability (Everolimus + Lapatinib; first compound 0.03162 µM),relative viability (Everolimus + Lapatinib; first compound 0.1 µM),relative viability (Everolimus + Lapatinib; first compound 0.3162 µM),relative viability (Everolimus + Lapatinib; first compound 1 µM)
NCI-H2023,0.433,0.388,0.368,0.395,0.312,0.273,0.203,0.235,0.235,0.225,0.204,0.21,0.198,0.199,0.168,0.604,0.456,0.378,0.616,0.314
NCI-H2085,0.775,0.719,0.64,0.655,0.496,0.81,0.723,0.602,0.656,0.557,0.508,0.536,0.483,0.478,0.395,0.489,0.364,0.434,0.506,0.486
NCI-H2087,1.18,1.01,0.783,0.885,0.922,0.256,0.199,0.198,0.218,0.174,0.229,0.205,0.2,0.198,0.257,1.2,1.05,0.824,0.848,1.05
